# Results from patent US20240316078A1, “Treatment of Neuropathic Sensitization Disorders” (IVIEW Therapeutics, Inc., priority 2021, published 2024).
# Where “and” joins values, the source holds several entries; their conditions need not be identical. Equal entries are not always repeated.
# Tests used:
# [1] = test system: patients with DE-associated NOP; assay: Ocular Pain Assessment Survey (OPAS) in pilot study of topical cryosim-3; type: in vivo, human; details: C3 2 mg/mL eyelid wipe 4 times/day, mean ± SD, 15 patients; for OPAS Tearing (0-1): baseline 0.36 ± 0.29; for OPAS Redness (0-1): baseline 0.41 ± 0.32; for OPAS Chemical stimuli (0-1): baseline 0.47 ± 0.35; for OPAS Burning sensation (0-1): baseline 0.57 ± 0.37; for OPAS Mechanical stimuli (0-1): baseline 0.63 ± 0.29; for OPAS Sensitivity to light (0-1): baseline 0.76 ± 0.24; for OPAS Aggravating factors (total 0-2): baseline 1.11 ± 0.49; for OPAS Associated factors (total 0-4): baseline 2.09 ± 0.76; for OPAS General activity (walking, etc.) (0-10): baseline 4.00 ± 3.18; for OPAS Sleep (0-10): baseline 4.27 ± 3.81; for OPAS Enjoying life/relations with other people (0-10): baseline 5.07 ± 2.84; for OPAS Mood (0-10): baseline 5.40 ± 2.77; for OPAS Driving and/or watching TV (0-10): baseline 6.80 ± 2.31; for OPAS Non-eye pain (0-20): baseline 7.67 ± 6.22; for OPAS Reading and/or computer use (0-10): baseline 7.79 ± 1.76; for OPAS Eye pain intensity (0-60): baseline 30.60 ± 12.84; for OPAS Quality of life (total 0-60): baseline 33.53 ± 14.24
# Description: (§1) This prospective non-randomized pilot study was conducted in accordance with the tenets of the Declaration of Helsinki. Ethical approval was obtained from the Chonnam National University Hospital Institutional Review Board (CNUH-2018-274). Informed consent was obtained from all included patients. The sample size was calculated using the G*Power software (version 3.1.9.4; Heinrich-Heine University, Germany) with a level of α=0.05 and a power of 95% to detect a 2-point difference in pain scales. Accordingly, a total sample size of 13 patients was found sufficient.
# (§2) Patients with DE accompanied by NOP features, who underwent evaluation between January and December in 2018, were enrolled. DE was diagnosed based on OSDI score ≥13 and tear break-up time (TBUT) ≤7 s. The inclusion criteria were as follows: (1) chronic ocular pain which was unresponsive to conventional topical agents (i.e. lubricants, anti-inflammatories, secretagogues, etc.) for >3 months; (2) discordance between the painful DE symptoms and signs accompanying with specific descriptors, including burning or stinging; and (3) a Wong-Baker FACES Pain Rating Scale (WBFPS) score […].
# (§3) The patients were treated with add-on C3 while undergoing conventional topical treatment. C3 samples (2 mg/mL) were diluted in purified water, soaked in gauze, and packaged using automated equipment. The patients applied topical C3 by wiping the gauze on the closed eyelid margin, 4 times/day for 1 month (FIG. 1).
# The WBFPS was chosen to screen the pain severity in the patients with DE. The patients chose the face that best depicted the pain they were experiencing. At baseline, 1 week, and 1 month after treatment, the patients also completed the OPAS which is a validated questionnaire for neuropathic pain as previously described. The questions were divided into sections for analysis: questions 4-9, pertained to eye pain intensity (0 to 60); questions 10-11, pertained to non-eye pain (0 to 20); questions 13-19 (0-10, total score 0 to 60), assessed the QoL (reading and/or computer use, driving and/or watching TV, general activity, mood, sleep, and enjoying life/relations with other people); questions 20-21 (each score 0-1, total score 0-2), assessed aggravating factors (mechanical and chemical stimuli); and questions 22-25 (each score 0-1, total score 0-4), assessed associated factors (redness; burning; sensitivity to light; and tearing). The section on symptomatic relief of the OPAS was excluded, and only questions 4-25 were analyzed. The questions were divided into 5 sections as follows: eye pain intensity, non-eye pain, QoL, aggravating factors, and associated factors.
# (§4) Statistical analyses were conducted using PASW Statistics for Windows, Version 18.0 (SPSS Inc., Chicago, IL, USA). The normality of distribution was assessed using the Shapiro-Wilk test. The Wilcoxon signed-rank test and repeated-measures analysis of variance with Bonferroni's post-hoc test were used for comparing parameters before and after treatment. A P<0.05 was considered statistically significant.
# [2] = test system: patients with DE-associated NOP; assay: Clinical dry eye parameters (OSDI, TBUT, Schirmer test, corneal staining) in pilot study; type: in vivo, human; details: C3 2 mg/mL eyelid wipe 4 times/day, 1-month, mean ± SD
# Text: as §2, §3
# The OSDI questionnaire which ranged from 0 to 100 was used to quantify the vision-related QoL. TBUT (tear breakup time), the time interval between the last complete blink and the first appearance of disruption of the tear film, was measured thrice and the mean value was used for analysis. Corneal staining scores were assessed using the area-density index, by multiplying the area and density score. The Schirmer test score represented the length of wetting, and was measured using a calibrated sterile strip placed at the lateral canthus for 5 min under topical anesthesia (0.5% proparacaine). Only the score of the right eye was assessed.
# as §4
# [3] = test system: patients with DE-associated NOP; assay: Wong-Baker FACES Pain Rating Scale (WBFPS) in enrolled patients; type: in vivo, human; details: individual patients No. 1-15
# Text: as §2
# The patients were treated with add-on C3 while undergoing conventional topical treatment. […]
# The WBFPS was chosen to screen the pain severity in the patients with DE. […] The questions were divided into sections for analysis: questions 4-9, pertained to eye pain intensity (0 to 60); questions 10-11, pertained to non-eye pain (0 to 20); questions 13-19 (0-10, total score 0 to 60), assessed the QoL (reading and/or computer use, driving and/or watching TV, general activity, mood, sleep, and enjoying life/relations with other people); questions 20-21 (each score 0-1, total score 0-2), assessed aggravating factors (mechanical and chemical stimuli); and questions 22-25 (each score 0-1, total score 0-4), assessed associated factors (redness; burning; sensitivity to light; and tearing). […]
# [4] = test system: patients with DE accompanying NOP features; assay: Pilot study: discontinuation, safety and onset of effect; type: in vivo, human
# Description: as §1, §3
# This study enrolled 20 patients with DE accompanying NOP features. Five patients (25.0%) discontinued the treatment because of drug ineffectiveness or intolerance. The remaining 15 patients (75.0%) were included in the analysis. Their mean age was 59.5±13.0 years, and nine patients (60.0%) were women.
# patients with mild DE = details: cited from earlier work
# [5] = topical C3 in DE, previous study
smiles,measurement,setting,value
"CCCCCCCCCP(=O)(C(C)C)C(C)C [cryosim-3, 1-[Diisopropyl-phosphinoyl]-nonane]",OPAS Tearing (0-1),[1]; 1-month,0.21 ± 0.27
same,OPAS Redness (0-1),[1]; 1-month,0.39 ± 0.30
same,OPAS Chemical stimuli (0-1),[1]; 1-month,0.41 ± 0.32
same,OPAS Burning sensation (0-1),[1]; 1-month,0.29 ± 0.29
same,OPAS Mechanical stimuli (0-1),[1]; 1-month,0.47 ± 0.26
same,OPAS Sensitivity to light (0-1),[1]; 1-month,0.59 ± 0.28
same,OPAS Aggravating factors (total 0-2),[1]; 1-month,0.88 ± 0.57
same,OPAS Associated factors (total 0-4),[1]; 1-month,1.58 ± 0.93
same,"OPAS General activity (walking, etc.) (0-10)",[1]; 1-month,3.20 ± 2.86
same,OPAS Sleep (0-10),[1]; 1-month,2.73 ± 3.81
same,OPAS Enjoying life/relations with other people (0-10),[1]; 1-month,4.27 ± 3.03
same,OPAS Mood (0-10),[1]; 1-month,4.40 ± 2.47
same,OPAS Driving and/or watching TV (0-10),[1]; 1-month,5.60 ± 2.90
same,OPAS Non-eye pain (0-20),[1]; 1-month,5.47 ± 5.62
same,OPAS Reading and/or computer use (0-10),[1]; 1-month,6.93 ± 2.59
same,OPAS Eye pain intensity (0-60),[1]; 1-month,21.53 ± 10.84
same,OPAS Quality of life (total 0-60),[1]; 1-month,27.17 ± 16.06
same,OPAS Tearing (0-1),[1]; 1-week,0.17 ± 0.18
same,OPAS Redness (0-1),[1]; 1-week,0.41 ± 0.30
same,OPAS Chemical stimuli (0-1),[1]; 1-week,0.41 ± 0.35
same,OPAS Burning sensation (0-1),[1]; 1-week,0.40 ± 0.33
same,OPAS Mechanical stimuli (0-1),[1]; 1-week,0.47 ± 0.25
same,OPAS Sensitivity to light (0-1),[1]; 1-week,0.57 ± 0.26
same,OPAS Aggravating factors (total 0-2),[1]; 1-week,0.87 ± 0.56
same,OPAS Associated factors (total 0-4),[1]; 1-week,1.55 ± 0.85
same,"OPAS General activity (walking, etc.) (0-10)",[1]; 1-week,3.27 ± 2.71
same,OPAS Sleep (0-10),[1]; 1-week,2.93 ± 3.67
same,OPAS Enjoying life/relations with other people (0-10),[1]; 1-week,4.33 ± 2.97
same,OPAS Mood (0-10),[1]; 1-week,4.53 ± 2.50
same,OPAS Driving and/or watching TV (0-10),[1]; 1-week,5.27 ± 2.52
same,OPAS Non-eye pain (0-20),[1]; 1-week,6.73 ± 6.18
same,OPAS Reading and/or computer use (0-10),[1]; 1-week,7.14 ± 2.48
same,OPAS Eye pain intensity (0-60),[1]; 1-week,26.47 ± 11.45
same,OPAS Quality of life (total 0-60),[1]; 1-week,27.60 ± 15.49
same,Schirmer test score,"[2]; 5 min under topical anesthesia, baseline 7.07 ± 2.76",8.47 ± 2.80 mm
same,Corneal staining score (0-9),[2]; baseline 0.60 ± 0.91,0.13 ± 0.35
same,Tear break-up time,[2]; baseline 4.13 ± 0.83,4.00 ± 0.85 s
same,Ocular surface disease index,"[2]; scale 0 to 100, baseline 57.5 ± 13.8",40.2 ± 12.6
same,WBFPS score,[3]; 1 month of add-on C3 2 mg/mL eyelid wipe 4 times/day,2 and 5 (4×) and 6 (2×) and 3 and 4 (3×) and 1 (3×) and 7
same,WBFPS score,[3]; 1 week of add-on C3 2 mg/mL eyelid wipe 4 times/day,1 (4×) and 7 (3×) and 6 (5×) and 3 and 5 (2×)
same,patients who discontinued the treatment because of drug ineffectiveness or intolerance,[4]; five of 20 enrolled patients,25.0%
same,time to improvement of ocular pain after C3 treatment,[4]; patients unresponsive to conventional treatment (122.7 days),≤ 1 week
same,safety and effectiveness of topical application to the eyelid in relieving NOP,[4]; patients with DE,safe and effective
same,effect on basal tear secretion,patients with mild DE; [5],increasing basal tear secretion
same,effect on ocular discomfort,patients with mild DE; [5],alleviating ocular discomfort without any complications
same,duration of painless cooling sensation after wiping,patients with mild DE; wiping of C3,approximately 40 minutes
